Columns and labels:
incision wound = test: Incised wound healing test in rats; assay type: in vivo, SD rats; conditions: 1% ointment, 0.2 g/day for 4 days; four days after incision
Description: SD rats (male, 12-week-old) were clipped of hairs and divided into groups of 10 animals to make the mean body weights of the groups roughly the same, and subjected to the test. Each animal was given an incision wound along the median line under diethyl ether anesthesia. The incision wound was stapled at three sites using Michel's clips, and a 1% oxidized coenzyme Q10 ointment or a 1% reduced coenzyme Q10 ointment was applied at a dose of 0.2 g/day for 4 days. Two control groups, namely a nontreated group and an ointment base group treated with the same dose of the ointment base, were used. Three days after incision, the Michel's clips were removed and, four days after incision, each animal was euthanized by overanesthesia with diethyl ether, the skin around the incision was peeled off, and skin sections were prepared. The skin sections were measured for tension on a tensile tester.

[1] = Percutaneous absorption test (coenzyme Q10 in skin after dermal application); assay type: in vivo, hairless rats; conditions: for Coenzyme Q10 concentration in skin / Reduced coenzyme Q10 concentration in skin: mean ± SD
Method: The test sample 1 and comparative sample 1 were used as test substances. The test was carried out using male hairless rats (weighing 250 to 300 g) fed under well-fed conditions. A 0.1-g portion of the test sample 1, comparative sample 1, or PEG 1500 as a control was applied to an area of 3 cm square on the back of each hairless rat lightly anesthetized with ether. Three hours, 8 hours or 24 hours after application, the rat was sacrificed by euthanasia, the applied area was washed thoroughly, and a skin sample was taken. The skin sample was homogenized and extracted with propanol, the extract was concentrated using a solid phase column, and the amount of coenzyme Q10 in the skin was determined by high-performance liquid chromatography.
Each of the skin samples mentioned above was homogenized and extracted with hexane, the extract was evaporated to dryness and dissolved in ethanol, and the proportion of reduced coenzyme Q10 in skin was determined by high-performance liquid chromatography with an electrochemical detector. Each numerical value means the mean±standard deviation.
The test was carried out in the same manner as in Example 1 using the test samples 2, 3, 4 and 5 as well as the comparative sample 1 as test samples.
In FIG. 1, the vertical axis denotes the total amount of coenzyme Q10 and the amount of reduced coenzyme Q10 in skin at 3 hours after application, and the horizontal axis denotes the content (% by weight) of reduced coenzyme Q10 relative to the total amount of coenzyme Q10 in the sample applied. Each bar indicates the mean value.

[2] = as compared with 100% oxidized coenzyme Q10

Compound | Skin repair (tension of skin sections on a tensile tester, in words) (incision wound) | Coenzyme Q10 concentration in skin, relative value in parentheses (oxidized coenzyme Q10 = 100) ([1]; 3 hr) | Reduced coenzyme Q10 concentration in skin, relative value in parentheses (oxidized coenzyme Q10 = 100) ([1]; 3 hr) | Coenzyme Q10 concentration in skin ([1]; 3 hr after application of 0.1 g PEG 1500 ointment (0.1 g coenzyme Q10 per 10 ml) to 3 cm square back skin) | Reduced coenzyme Q10 concentration in skin ([1]; 3 hr after application, HPLC with electrochemical detector) | Coenzyme Q10 concentration in skin, relative value in parentheses (oxidized coenzyme Q10 = 100) ([1]; 8 hr) | Reduced coenzyme Q10 concentration in skin, relative value in parentheses (oxidized coenzyme Q10 = 100) ([1]; 8 hr) | Coenzyme Q10 concentration in skin ([1]; 8 hr after application of 0.1 g PEG 1500 ointment to back skin) | Reduced coenzyme Q10 concentration in skin ([1]; 8 hr after application) | Coenzyme Q10 concentration in skin, relative value in parentheses (oxidized coenzyme Q10 = 100) ([1]; 24 hr) | Reduced coenzyme Q10 concentration in skin, relative value in parentheses (oxidized coenzyme Q10 = 100) ([1]; 24 hr) | Coenzyme Q10 concentration in skin ([1]; 24 hr after application of 0.1 g PEG 1500 ointment to back skin) | Reduced coenzyme Q10 concentration in skin ([1]; 24 hr after application) | Increase of the amount of coenzyme Q10 in skin (in words) [1, 2] | Increase of the amount of reduced coenzyme Q10 in skin (in words) [1, 2]
COC1=C(OC)C(=O)C(C/C=C(\C)CC/C=C(\C)CC/C=C(\C)CC/C=C(\C)CC/C=C(\C)CC/C=C(\C)CC/C=C(\C)CC/C=C(\C)CC/C=C(\C)CCC=C(C)C)=C(C)C1=O [Oxidized coenzyme Q10, oxidized coenzyme Q10, reference compound] | skin repair promoting effect | – | – | – | – | – | – | – | – | – | – | – | – | – | –
COc1c(O)c(C)c(C/C=C(\C)CC/C=C(\C)CC/C=C(\C)CC/C=C(\C)CC/C=C(\C)CC/C=C(\C)CC/C=C(\C)CC/C=C(\C)CC/C=C(\C)CCC=C(C)C)c(O)c1OC [Reduced coenzyme Q10, reduced coenzyme Q10] | skin repair promoting effect | (165***) | (414***) | 13.72 ± 0.70 µg/g | 12.55 ± 0.51 µg/g | (228*) | (317**) | 17.96 ± 4.85 µg/g | 15.84 ± 4.56 µg/g | (206*) | (239*) | 15.68 ± 3.95 µg/g | 12.99 ± 4.81 µg/g | very effective in increasing the amount of coenzyme Q10 in skin | very effective in increasing the amount of reduced coenzyme Q10 in skin

Reference: US20110070213A1, “DERMAL COMPOSITIONS CONTAINING COENZYME Q AS THE ACTIVE INGREDIENT” (KANEKA CORPORATION, priority 2000, published 2011)
